Measured values reported in patent US5232917A, “Methods, compositions, and compounds for allosteric modulation of the GABA receptor by members of the androstane and pregnane series” (priority 1991, dated 1993).
Where two headings read alike, the source gives them in different places.

Experiments:
[1] = tested on: GABA receptor complex (36Cl uptake, cerebral cortical synaptoneurosomes); experiment: GABA-stimulated 36Cl uptake in rat cerebral cortical synaptoneurosomes; assay type: biochemical, rat (male Sprague-Dawley)
Description: In addition, the ability of the BZ clonazepam to modulate ^36 Cl uptake in the presence or absence of 5α-pregnandiol was evaluated.
The homogenate was diluted to a final volume of 40 mL with buffer and filtered through three layers of Nylon mesh (160 μm).
Aliquots of membrane preparation (200 μL) were preincubated at 30° C. for 10 min. The interaction was initiated by the simultaneous addition of drugs/steroids and 0.2 mL ^36 Cl (New England Nuclear Boston, Mass., 0.55 mCi/mmol, 0.8 μCi/ml) resulting in a total incubation volume of 0.4 mL. Steroids and test drugs were solubilized in dimethylsufoxide (DMSO) and added to the reaction mixture in 2 μL aliquots. An equal volume of vehicle was always included in the control reaction mixture. The mixture was gently mixed and ^36 Cl uptake terminated after 5 sec by the of 5 mL of ice cold buffer containing 100 μM picrotoxin (Sigma Chem Co.) followed immediately by rapid filtration through glass fiber filters (Whatman GF/C) under vacuum. The filters were washed twice with 5 mL of ice-cold buffer and the filter-bound radioactivity quantitated by liquid scintillation spectrophotometry. Specific uptake was calculated by subtracting the amount of ^36 Cl bound to the filters in the absence of synaptoneurosomes from that observed in their presence. Percent enhancement represents percent increase in uptake over that of basal ^36 Cl uptake. Statistical comparisons utilized the analysis of variance (ANOVA).

[2] = Swinyard & Woodhead, 1982; cited from earlier work
[3] = tested on: number of light/dark transitions (anxiety); details: Crawley et al., cited from earlier work; for effect on number of light/dark transitions (literature): Blumstein and Crawley, 1983
[4] = tested on: sedative potential (rotorod); details: Swinyard & Woodhead, 1982; cited from earlier work
[5] = tested on: metrazol-induced convulsions; details: Swinyard & Woodhead, 1982; cited from earlier work
[6] = tested on: maximal electroshock seizure; details: Swinyard & Woodhead, 1982; cited from earlier work
[7] = tested on: strychnine-induced convulsions; design: key to ED50 STR (strychnine): NP: no protection; details: Swinyard & Woodhead, 1982; cited from earlier work
[8] = tested on: picrotoxin-induced convulsions; details: Swinyard & Woodhead, 1982; cited from earlier work
[9] = tested on: (+)bicuculline-induced seizures; details: Swinyard & Woodhead, 1982; cited from earlier work
locomotor activity = experiment: Locomotor activity in habituated mice; assay type: in vivo, mice (male N.I.H. Swiss-Webster)
Description: For evaluation of a drug's effects on general activity, mice were first habituated to the open-field apparatus for 15 min. The following day, mice were pretreated with a test drug and placed in the center of the activity chambers. The total distance traveled was measured for 10 min.
(§1) The vehicle control data were analyzed across test days using an 1-way analysis of variance (ANOVA). […] The dose-response curves were then analyzed using an 1-way ANOVA, followed by Dunnett's t-test for individual comparisons between doses and control. The open-field and habituated locomotor data were analyzed using ANOVA followed by Dunnett's t-test. […] All data is expressed as the mean±S.E.M.

[10] = tested on: number of light/dark transitions (anxiety); experiment: Light/dark transition test; assay type: in vivo, mice (male N.I.H. Swiss-Webster)
Text: (§2) The light/dark transition test (Crawley and Goodwin, 1980) is based on the observation that rodents naturally tend to explore novel environments, but open, brightly lit arenas are aversive to the rodents and inhibit exploratory behavior (Christmas and Maxwell, 1970; File, 1980). […] Similar to the light/dark transition test, the open-field test measures the antagonism between the tendency to explore a novel environment and the tendency to remain still in an aversive environment (brightly lit arena). […] The open-field test provides a simple, non-punished assessment of the potential anxiolytic properties of novel compounds. Finally, 3α-OH-DHP was tested for anxiolytic properties in a Vogel conflict paradigm. The ability of BZs to attenuate the suppression of behavior by punishment in conflict paradigms is well established (Gellar et al., 1962; Vogel et al., 1971).
(§3) Male N.I.H. Swiss-Webster mice (Harlan) weighing 15-20 g were used in all experiments. The mice were housed 4/cage in polyethylene cages with sawdust bedding. The colony room was environmentally controlled (22° C.) with a 12 hr. light/dark cycle (0600-1800 hrs.). The mice had free access to food and water. The experiments were run from 0700-1500 hrs. and groups were counterbalanced for time of day effects.
The method used was previously described by Crawley and Goodwin (1980). The apparatus included a large box (26×33×24 cm) connected to a small box (15×22×14 cm) through an opening (5×6 cm). The large box was brightly lit with a standard 100W light bulb, while the small box was kept dark. Following pretreatment with a test drug, mice were placed in the center of the large box and the number of transitions between the large and small boxes was counted for 10 min. […] During the antagonist studies, CGS-8216 was administered 30 min. prior to the test drug.
(§4) 2-Hydroxypropyl β-cyclodextrin Diazepam and chlordiazepoxide are available from Sigma, Co. (St. Louis, Mo.). CGS-8216 was obtained from Ciba-Geigy (Summit, N.J.). All drugs were dissolved in 20% β-cyclodextrin in water and sonicated overnight. All drugs were administered intraperitoneally in a volume of 100 μL/20 g. CGS-8216 was administered subcutaneously in a volume of 100 μL/20 g.
as §1

open-field activity = experiment: Open-field activity test; assay type: in vivo, mice (male N.I.H. Swiss-Webster); details: diazepam 10 mg/kg
Text: as §2, §3
As a secondary measure of anxiolytic effects, naive mice were placed in the center of a large, brightly lit plexiglass box (42×42×30.5 cm) and the total distance traveled was measured during a 10 min. test period. […] The Digiscan Activity Monitor (Omnitech Electronics, Columbus, Ohio) includes 16 photobeams that surround the box. The activity monitor is linked to a computer through a Digiscan Analyzer (Omnitech Electronics) and the data is analyzed using the Integrated Lab Animal Monitoring System (Omnitech Electronics). The mice were administered drugs as described for light/dark transitions.
as §4, §1

punished responding = experiment: Vogel conflict paradigm (lick suppression); assay type: in vivo, mice (male N.I.H. Swiss-Webster); details: CDP 10 mg/kg
Text: An Anxio-Monitor (Omnitech Electronics, Columbus, Ohio) was used for measuring lick suppression. The testing chamber consisted of a clear plexiglass box (29 cm×29 cm×23 cm) with a metal drinking tube located 2.5 cm from the floor and extending 2 cm into the box. The shock was applied through the drinking spout and was controlled by the Anxio-Monitor. […] The reinforcer was 0.1M sucrose.
The conflict test procedure described by Vogel et al. (1980) was employed. This procedure is a modification of the original lick suppression test first described by Vogel et al. (1971). After 24 hr. of water deprivation,mice were allowed to explore the test apparatus and drink without punishment for 10 min. or 100 licks. […] Mice were allowed unpunished access to the drinking tube for 20 licks, thereafter, every 10th lick was punished with 0.1 mA shock. The test duration was 5 min.
as §1

[11] = tested on: PMS, PND and catamenial epilepsy; details: cited from earlier work; for clinical effectiveness: PMS, PND, catamenial epilepsy (progesterone), menstrual-cycle correlated epileptic spells (desoxycorticosterone)
[12] = tested on: GABA receptor-chloride ionophore complex (GR complex); experiment: [35S]TBPS binding modulation assay

O=C1CN=C(c2ccccc2Cl)c2cc([N+](=O)[O-])ccc2N1 [Clonazepam]
% enhancement of basal 36Cl uptake ([1]; GABA (25 μM) + clonazepam (1 μM)): 164±2%
% enhancement of basal 36Cl uptake ([1]; clonazepam (1 μM), no GABA): 1 ± 0.5%
LD50 [2]: > 6000 mg/kg
effect on number of light/dark transitions (literature) [3]: increase the number of transitions
ED50 RR (Rotorod) [4]: 0.184 mg/kg
ED50 MTZ (metrazol) [5]: 9 µg/kg
ED50 MES (maximal electroshock) [6]: 93 mg/kg
ED50 STR (strychnine) [7]: NP
ED50 PICRO (picrotoxin) [8]: 0.043 mg/kg
ED50 BIC (bicuculline) [9]: 8.6 µg/kg

CN1C(=O)CN=C(c2ccccc2)c2cc(Cl)ccc21 [Diazepam, reference compound]
effect on locomotor activity (locomotor activity; acclimated mice): no effect
total distance traveled, acclimated mice (locomotor activity; diazepam 10 mg/kg, controls 2061.2±157.7 cm): 2258.0±897.7 cm
effect on number of light/dark transitions (literature) [3]: increase the number of transitions
effect on number of light/dark transitions (words) ([10]; 3α-OH-DHP 10, 20, 40 mg/kg, 5α-THDOC 20 mg/kg, diazepam 1.0, 5.0, 10, 20 mg/kg, 20 mg/kg): significantly (p<0.01) different from controls
number of transitions in 10 min (maximal response) ([10]; diazepam 10 mg/kg i.p., FIG. 11): 86.4±5.4 transitions
total distance, open-field (open-field activity; 10 min, vehicle 2004.6 ± 134.6): 4817.7 ± 528.4 cm
effect on open-field activity (open-field activity; steroids 20 mg/kg): significant (p<0.01) increase in activity

CNC1=Nc2ccc(Cl)cc2C(c2ccccc2)=[N+]([O-])C1 [CDP, reference compound]
increase in punished responding vs controls (punished responding; 5 min session, p=0.03, FIG. 14): 197.4%
punished responding (punished responding; controls 3.11±0.68): 6.14±1.14

C[C@]12CC[C@H]3[C@@H](CCC4=CC(=O)CC[C@@]43C)[C@@H]1CC[C@@H]2C(=O)CO [desoxycorticosterone]
clinical effectiveness [11]: effective

O=C1C2C=Nc3ccccc3C2=NN1c1ccccc1 (stereo not drawn) [CGS-8216, reference compound]
block of diazepam's anxiolytic effects (literature) [3]; 1984: block diazepam's anxiolytic effects
block of anxiolytic effect of 3α-OH-DHP by CGS-8216 ([10]; CGS-8216 10 mg/kg, 3α-OH-DHP 10 mg/kg, FIG. 13A): unable to block
block of anxiolytic effect of diazepam by CGS-8216 ([10]; diazepam 1.0 mg/kg, FIG. 13B): able to block the anxiolytic effect of diazepam
intrinsic activity in light/dark transition test ([10]; p>0.4 vs vehicle): did not demonstrate any intrinsic activity

CC(=O)[C@H]1CC[C@H]2[C@@H]3CCC4=CC(=O)CC[C@]4(C)[C@H]3CC[C@]12C [PROGESTERONE, reference compound]
dose-response relationship in the treatment of PMS ([11]; Maddocks et al., Dennerstein et al.): no dose-response relationship exists
clinical effectiveness [11]: not consistently effective
potency/activity at the GR complex ([12]; modulation of [35S]TBPS binding): very low potency
IC50 ([12]; read-out: IC50, inhibition of [35S]-TBPS binding, +5 μM GABA, in the presence of 5 μM GABA): 5.2 µM
IC50 ([12]; read-out: IC50, inhibition of [35S]-TBPS binding, No GABA, washed synaptoneurosomes, no GABA added): > 100 µM
Max. Inhib., maximal % of specifically bound [35S]-TBPS displaced ([12]; saturating concentrations of test compound): 100%
